Results from publication PMC9667932, “Isobactins: O-acyl isopeptide prodrugs of teixobactin and teixobactin derivatives” (Chemical Science, 2022).
Converted amounts (≈) assume the structure as drawn. Read-outs that look alike come from different tables or passages of the source. Marks after values point to notes of the source that are not given here.

What was measured:
human red blood cells = assay: Hemolytic assay; type: cell-based
From the text: We evaluated the hemolytic activity of the O-acyl isopeptide prodrugs and the corresponding teixobactin analogues with human red blood cells (Fig. S14–S21 ^†). We used Triton X-100 and melittin as positive controls and vancomycin and water (vehicle) as negative controls in the hemolysis assays.[9,25,26] […] In contrast, 0.002% polysorbate 80 had no effect on the hemolytic activity of Lys10–teixobactin and Leu10–teixobactin and little effect on the corresponding O-acyl isopeptide prodrug analogues. When we performed hemolysis assays with teixobactin, we observed no hemolysis up to 100 μg mL^−1 without polysorbate 80 and modest hemolysis (4%) at 100 μg mL^−1 with 0.002% polysorbate 80. We observed no hemolysis with vancomycin at concentrations up to 100 μg mL^−1, and we observed 26–30% hemolysis with 1.25 μg mL^−1 melittin with and without 0.002% polysorbate 80.

[1] = tested on: Staphylococcus aureus (MRSA) ATCC 700698; assay: microbe, parasite or virus in culture
From the text: (§1) We used methicillin-susceptible and methicillin-resistant S. aureus as representative pathogens and B. subtilis and S. epidermidis as additional Gram-positive bacteria, and we used E. coli as a Gram-negative control.

[2] = tested on: four Gram-positive bacteria; conditions: Table 2
From the text: as §1

[3] = tested on: Staphylococcus epidermidis ATCC 14990; assay: microbe, parasite or virus in culture
From the text: as §1

[4] = tested on: Escherichia coli ATCC 10798; assay: microbe, parasite or virus in culture
From the text: as §1

[5] = tested on: Staphylococcus aureus (MSSA) ATCC 29213; assay: microbe, parasite or virus in culture; conditions: ATCC29213|MSSA
From the text: as §1

[6] = tested on: Bacillus subtilis ATCC 6051; assay: microbe, parasite or virus in culture
From the text: as §1

[7] = in the presence of 0.002% polysorbate 80

Q: `CC[C@H](C)[C@H](NC(=O)[C@@H](Cc1ccccc1)NC)C(=O)N[C@@H](CO)C(=O)N[C@H](CCC(N)=O)C(=O)N[C@@H](C(=O)N[C@H](C(=O)N[C@@H](CO)C(=O)N[C@H]1C(=O)N[C@@H](C)C(=O)N[C@@H](CC(C)C)C(=O)N[C@@H]([C@@H](C)CC)C(=O)O[C@H]1C)[C@@H](C)CC)[C@@H](C)CC` [Leu10–teixobactin] was tested. Which “Effect of 0.002% polysorbate 80 on the hemolytic activity” value (human red blood cells) did it give?
A: no effect

Q: And the “MIC Staphylococcus aureus (MRSA) ATCC 700698” value ([1]; ATCC 700698)?
A: 2 ^a μg mL^−1

Q: What does the source list for `CC[C@H](C)[C@H](NC(=O)[C@@H](Cc1ccccc1)NC)C(=O)N[C@@H](CO)C(=O)N[C@H](CCC(N)=O)C(=O)N[C@@H](C(=O)N[C@H](C(=O)N[C@@H](CO)C(=O)N[C@H]1C(=O)N[C@@H](C)C(=O)N[C@@H](CCCCN)C(=O)N[C@@H]([C@@H](C)CC)C(=O)O[C@H]1C)[C@@H](C)CC)[C@@H](C)CC` [Lys10–teixobactin]?
A: MICs (range over the Gram-positive bacteria) [2, 7]: 0.25 to 2 µg/mL; MICs (range over the Gram-positive bacteria) ([2]; without polysorbate 80): 2 to 4 µg/mL; Effect of 0.002% polysorbate 80 on the hemolytic activity (human red blood cells): no effect

Q: Which “MICs (range over the Gram-positive bacteria)” value [2, 7] does the source give for `CN[C@H](CC(C)C)C(=O)N[C@H]1C(=O)N[C@@H](CC(N)=O)C(=O)N[C@H]2C(=O)N[C@H]3C(=O)N[C@H](C(=O)N[C@H](C(=O)O)c4cc(O)cc(O)c4-c4cc3ccc4O)[C@H](O)c3ccc(c(Cl)c3)Oc3cc2cc(c3O[C@@H]2O[C@H](CO)[C@@H](O)[C@H](O)[C@H]2O[C@H]2C[C@](C)(N)[C@H](O)[C@H](C)O2)Oc2ccc(cc2Cl)[C@H]1O` [Vancomycin, vancomycin, reference compound] here?
A: 0.125 to 2 µg/mL

Q: What about the “Hemolysis at concentrations up to 100 μg mL^−1” value (human red blood cells; negative control) of the same molecule?
A: no hemolysis

Q: What about the MIC ([3]; ATCC14990, read-out: MIC Staphylococcus epidermidis ATCC 14990, culture media containing 0% polysorbate 80) of the same molecule?
A: 1 µg/mL (≈ 0.69 µM)

Q: What about the MIC ([3]; ATCC14990, read-out: MIC Staphylococcus epidermidis ATCC 14990, culture media containing 0.002% polysorbate 80) of the same molecule?
A: 2 µg/mL (≈ 1.38 µM)

Q: What about the MIC ([4]; ATCC10798, read-out: MIC Escherichia coli ATCC 10798, culture media containing 0% polysorbate 80) of the same molecule?
A: > 32 µg/mL

Q: And the MIC ([4]; ATCC10798, read-out: MIC Escherichia coli ATCC 10798, culture media containing 0.002% polysorbate 80)?
A: > 8 µg/mL

Q: What about the MIC ([5]; read-out: MIC Staphylococcus aureus (MSSA) ATCC 29213, culture media containing 0% polysorbate 80) of the same molecule?
A: 0.5 µg/mL (≈ 0.345 µM)

Q: And the MIC ([5]; read-out: MIC Staphylococcus aureus (MSSA) ATCC 29213, culture media containing 0.002% polysorbate 80)?
A: 1 µg/mL (≈ 0.69 µM)

Q: And the MIC ([1]; Staphylococcus aureus, ATCC700698|MRSA, read-out: MIC Staphylococcus aureus (MRSA) ATCC 700698)?
A: 2 µg/mL (≈ 1.38 µM)

Q: And the “MIC Staphylococcus aureus (MRSA) ATCC 700698” value ([1]; culture media containing 0.002% polysorbate 80)?
A: 2 ^b μg mL^−1

Q: And the MIC ([6]; ATCC6051, read-out: MIC Bacillus subtilis ATCC 6051, culture media containing 0% polysorbate 80)?
A: 0.125 to 0.25 µg/mL (≈ 0.0863 to 0.173 µM)

Q: And the MIC ([6]; ATCC6051, read-out: MIC Bacillus subtilis ATCC 6051, culture media containing 0.002% polysorbate 80)?
A: 0.5 µg/mL (≈ 0.345 µM)

Q: How did the “Hemolysis at 1.25 μg mL^−1” value (human red blood cells; with and without 0.002% polysorbate 80, positive control) turn out when melittin [reference compound] was run?
A: 26–30%
